# Molecular target: human GLP-1R (Homo sapiens, UniProt P43220)
# Test: GLP-1R Cell Assay 1: cAMP Hunter CHO-K1 GLP1R Gs cell line, HitHunter cAMP assay
# Type: cell-based
# Settings: cAMP Hunter CHO-K1 GLP1R Gs cells, percent activity normalized to Exendin-4
# Outline: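 CHO-K1 cells overexpressing wild-type human GLP-1R treated with 3-fold serially diluted compounds for 30-60 min at 37 °C. cAMP measured by EFC competitive luminescent immunoassay; activity normalised to Exendin-4, duplicate runs, EC50 by nonlinear regression.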
# Sequence of human GLP-1R (P43220 24-463): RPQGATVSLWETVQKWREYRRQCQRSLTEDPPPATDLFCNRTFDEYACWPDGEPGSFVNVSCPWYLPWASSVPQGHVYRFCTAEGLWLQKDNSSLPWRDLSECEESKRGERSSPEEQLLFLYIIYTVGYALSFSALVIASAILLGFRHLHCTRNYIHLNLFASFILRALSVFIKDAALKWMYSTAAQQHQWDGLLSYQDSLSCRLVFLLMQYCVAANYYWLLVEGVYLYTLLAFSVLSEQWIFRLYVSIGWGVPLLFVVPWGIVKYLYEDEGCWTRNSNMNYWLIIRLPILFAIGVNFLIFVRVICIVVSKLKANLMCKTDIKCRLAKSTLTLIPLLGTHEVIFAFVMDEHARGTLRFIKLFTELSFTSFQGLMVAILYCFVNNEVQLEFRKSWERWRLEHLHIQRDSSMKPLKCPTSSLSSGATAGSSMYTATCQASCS
EC50 (Table 2),EC50 (Table 3),SMILES
232 nM,–,"O=C(O)c1ccc2nc(CN3CCN(c4ccc5cnn(Cc6ccccc6)c5n4)CC3)n(C[C@@H]3CCO3)c2c1 [Compound 27, (S)-2-((4-(1-benzyl-1H-pyrazolo[3,4-b]pyridin-6-yl)piperazin-1-yl)methyl)-1-(oxetan-2-ylmethyl)-1H-benzo[d]imidazole-6-carboxylic acid]"
102 nM,–,C[C@H]1c2ccc(C#N)cc2CCN1c1cccc(N2CCN(Cc3nc4ccc(C(=O)O)cc4n3C[C@@H]3CCO3)CC2)n1 [Compound 84]
2.17 nM,–,"O=C(O)c1ccc2nc(CN3CCN(c4cccc(OCc5ccc6ncoc6c5)n4)CC3)n(C[C@@H]3CCO3)c2c1 [Compound 75, (S)-2-((4-(6-(benzo[d]oxazol-6-ylmethoxy)pyridin-2-yl)piperazin-1-yl)methyl)-1-(oxetan-2-ylmethyl)-1H-benzo[d]imidazole-6-carboxylic acid]"
> 500 nM,–,"N#CC1(COc2cccc(N3CCN(Cc4nc5ccc(C(=O)O)cc5n4C[C@@H]4CCO4)CC3)n2)COC1 [Compound 61, (S)-2-((4-(6-((3-cyanooxetan-3-yl)methoxy)pyridin-2-yl)piperazin-1-yl)methyl)-1-(oxetan-2-ylmethyl)-1H-benzo[d]imidazole-6-carboxylic acid]"
–,0.0254 nM,"CCn1cncc1Cn1c(CN2CCC(c3cccc(OCc4nc5c(F)cc(C#N)cc5s4)n3)CC2)nc2ccc(C(=O)O)cc21 [Compound 164, 2-((4-(6-((6-cyano-4-fluorobenzo[d]thiazol-2-yl)methoxy)pyridin-2-yl)piperidin-1-yl)methyl)-1-((1-ethyl-1H-imidazol-5-yl)methyl)-1H-benzo[d]imidazole-6-carboxylic acid]"
> 500 nM,–,"CC(=O)N1CCC(COc2cccc(N3CCN(Cc4nc5ccc(C(=O)O)cc5n4C[C@@H]4CCO4)CC3)n2)CC1 [Compound 38, (S)-2-((4-(6-((1-acetylpiperidin-4-yl)methoxy)pyridin-2-yl)piperazin-1-yl)methyl)-1-(oxetan-2-ylmethyl)-1H-benzo[d]imidazole-6-carboxylic acid]"
56.2 nM,–,"N#Cc1cccc2c1CCCN(c1cccc(N3CCN(Cc4nc5ccc(C(=O)O)cc5n4C[C@@H]4CCO4)CC3)n1)C2 [Compound 78, (S)-2-((4-(6-(6-cyano-1,3,4,5-tetrahydro-2H-benzo[c]azepin-2-yl)pyridin-2-yl)piperazin-1-yl)methyl)-1-(oxetan-2-ylmethyl)-1H-benzo[d]imidazole-6-carboxylic acid]"
5.54 nM,–,"O=C(O)c1ccc2nc(CN3CCN(c4cccc(OCc5ccc6ocnc6c5)n4)CC3)n(C[C@@H]3CCO3)c2c1 [Compound 103, (S)-2-((4-(6-(benzo[d]oxazol-5-ylmethoxy)pyridin-2-yl)piperazin-1-yl)methyl)-1-(oxetan-2-ylmethyl)-1H-benzo[d]imidazole-6-carboxylic acid]"
17.3 nM,–,"N#Cc1ccc(COc2cccc(C3CCN([C@H]4CCCCn5c4nc4ccc(C(=O)O)cc45)CC3)n2)c(F)c1 [Compound 91, (S)-6-(4-(6-((4-cyano-2-fluorobenzyl)oxy)pyridin-2-yl)piperidin-1-yl)-7,8,9,10-tetrahydro-6H-benzo[4,5]imidazo[1,2-a]azepine-2-carboxylic acid]"
> 500 nM,–,"C[C@H]1COC[C@H](N2CCC(c3cccc(OCc4ccc(C#N)cc4F)n3)CC2)c2nc3ccc(C(=O)O)cc3n21 (single isomer, unassigned) [Compound 8-P1]"
0.174 nM,–,"O=C(O)c1ccc2nc(CN3CC[C@@]4(c5cccc(OCc6ccc(Cl)cc6Cl)n5)C[C@H]4C3)n(C[C@@H]3CCO3)c2c1 (single isomer, unassigned) [Compound 126-P1]"
2070 nM,–,O=C(O)c1ccc2nc(CN3CCC(n4ccc(OCCc5ccccc5)n4)CC3)n(C[C@@H]3CCO3)c2c1 [Compound 99]
3.28 nM,–,"O=C(O)c1ccc2nc(CN3CCN(c4cccc(OCc5ccccn5)n4)CC3)n(C[C@@H]3CCO3)c2c1 [Compound 40, (S)-1-(oxetan-2-ylmethyl)-2-((4-(6-(pyridin-2-ylmethoxy)pyridin-2-yl)piperazin-1-yl)methyl)-1H-benzo[d]imidazole-6-carboxylic acid]"
2.78 nM,–,"O=C(O)c1ccc2nc(CN3CCN(c4cccc(OCc5ccc6ccccc6n5)n4)CC3)n(C[C@@H]3CCO3)c2c1 [Compound 82, (S)-1-(oxetan-2-ylmethyl)-2-((4-(6-(quinolin-2-ylmethoxy)pyridin-2-yl)piperazin-1-yl)methyl)-1H-benzo[d]imidazole-6-carboxylic acid]"
–,> 500 nM,"N#Cc1ccc(CN2CCCc3ccc(C4CCN(Cc5nc6ccc(C(=O)O)cc6n5C[C@@H]5CCO5)CC4)nc32)c(F)c1 [Compound 143, (S)-2-((4-(8-(4-cyano-2-fluorobenzyl)-5,6,7,8-tetrahydro-1,8-naphthyridin-2-yl)piperidin-1-yl)methyl)-1-(oxetan-2-ylmethyl)-1H-benzo[d]imidazole-6-carboxylic acid]"
1.43 nM,–,"N#Cc1cc(F)c2c(c1)CCN(c1cccc(N3CCN(Cc4nc5ccc(C(=O)O)cc5n4C[C@@H]4CCO4)CC3)n1)C2 [Compound 73, (S)-2-((4-(6-(6-cyano-8-fluoro-3,4-dihydroisoquinolin-2(1H)-yl)pyridin-2-yl)piperazin-1-yl)methyl)-1-(oxetan-2-ylmethyl)-1H-benzo[d]imidazole-6-carboxylic acid]"
> 500 nM,–,"O=C(O)c1ccc2nc3n(c2c1)CCOC[C@H]3N1CCC(c2cccc(OCc3ccccc3)n2)CC1 [Compound 93, (S)-5-(4-(6-(benzyloxy)pyridin-2-yl)piperidin-1-yl)-1,2,4,5-tetrahydrobenzo[4,5]imidazo [1,2-d][1,4]oxazepine-9-carboxylic acid]"

# Second part, the compound before the results:
SMILES,EC50 (Table 2),EC50 (Table 3)
"N#Cc1ccc2c(c1)CCCN2c1cccc(N2CCN(Cc3nc4ccc(C(=O)O)cc4n3C[C@@H]3CCO3)CC2)n1 [Compound 76, (S)-2-((4-(6-(6-cyano-3,4-dihydroquinolin-1(2H)-yl)pyridin-2-yl)piperazin-1-yl)methyl)-1-(oxetan-2-ylmethyl)-1H-benzo[d]imidazole-6-carboxylic acid]",> 500 nM,–
"O=C(O)c1ccc2nc(CN3CC[C@]4(c5cccc(OCc6ccccc6)n5)C[C@@H]4C3)n(C[C@@H]3CCO3)c2c1 [Compound 97, 2-(((1S,6R)-6-(6-(benzyloxy)pyridin-2-yl)-3-azabicyclo[4.1.0]heptan-3-yl)methyl)-1-(((S)-oxetan-2-yl)methyl)-1H-benzo[d]imidazole-6-carboxylic acid]",18.6 nM,–
"O=C(O)c1ccc2nc(CN3CCN(c4ccc5cc(-c6ccccc6)oc5n4)CC3)n(C[C@@H]3CCO3)c2c1 [Compound 160, (S)-1-(oxetan-2-ylmethyl)-2-((4-(2-phenylfuro[2,3-b]pyridin-6-yl)piperazin-1-yl)methyl)-1H-benzo[d]imidazole-6-carboxylic acid]",–,> 500 nM
"O=C(O)c1ccc2nc(CN3CCN(c4cccc(OCc5nc6cc(Cl)ccc6s5)n4)CC3)n(C[C@@H]3CCO3)c2c1 [Compound 112, (S)-2-((4-(6-((5-chlorobenzo[d]thiazol-2-yl)methoxy)pyridin-2-yl)piperazin-1-yl)methyl)-1-(oxetan-2-ylmethyl)-1H-benzo[d]imidazole-6-carboxylic acid]",1.24 nM,–
"N#Cc1ccc(COc2cccc([C@@]34CCN(Cc5nc6ccc(C(=O)O)cc6n5C[C@@H]5CCO5)C[C@@H]3C4)n2)c(F)c1 (single isomer, unassigned) [Compound 9-P1]",0.171 nM,–
"O=C(O)c1ccc2nc(CN3CC[C@]4(c5cccc(OCc6ccc(Cl)cc6Cl)n5)C[C@@H]4C3)n(C[C@@H]3CCO3)c2c1 (single isomer, unassigned) [Compound 126-P2]",0.373 nM,–
"O=C(O)c1ccc2nc(CN3CCN(c4cccc(OC5(c6ccccc6)CCC5)n4)CC3)n(C[C@@H]3CCO3)c2c1 [Compound 51, (S)-1-(oxetan-2-ylmethyl)-2-((4-(6-(1-phenylcyclobutoxy)pyridin-2-yl)piperazin-1-yl)methyl)-1H-benzo[d]imidazole-6-carboxylic acid]",348 nM,–
"O=C(O)c1ccc2nc(CN3CCN(c4cccc(OCC5COC5)n4)CC3)n(C[C@@H]3CCO3)c2c1 [Compound 47, (S)-1-(oxetan-2-ylmethyl)-2-((4-(6-(oxetan-3-ylmethoxy)pyridin-2-yl)piperazin-1-yl)methyl)-1H-benzo[d]imidazole-6-carboxylic acid]",> 500 nM,–
"N#Cc1ccc(-n2ccc3c(C4CCN(Cc5nc6ccc(C(=O)O)cc6n5C[C@@H]5CCO5)CC4)cccc3c2=O)c(F)c1 [Compound 147, (S)-2-((4-(2-(4-cyano-2-fluorophenyl)-1-oxo-1,2-dihydroisoquinolin-5-yl)piperidin-1-yl)methyl)-1-(oxetan-2-ylmethyl)-1H-benzo[d]imidazole-6-carboxylic acid]",–,> 500 nM
"O=C(O)c1ccc2nc(CN3CCN(c4ccc5cn(Cc6ccccc6)nc5n4)CC3)n(C[C@@H]3CCO3)c2c1 [Compound 31, (S)-2-((4-(2-benzyl-2H-pyrazolo[3,4-b]pyridin-6-yl)piperazin-1-yl)methyl)-1-(oxetan-2-ylmethyl)-1H-benzo[d]imidazole-6-carboxylic acid]",> 500 nM,–
"O=C(O)c1ccc2nc(CN3CCN(c4cccc(OC5CCC6(CCC6)CC5)n4)CC3)n(C[C@@H]3CCO3)c2c1 [Compound 49, (S)-1-(oxetan-2-ylmethyl)-2-((4-(6-(spiro[3.5]nonan-7-yloxy)pyridin-2-yl)piperazin-1-yl)methyl)-1H-benzo[d]imidazole-6-carboxylic acid]",> 500 nM,–
"O=C(O)c1ccc2nc(CN3CCN(c4cccc(OC5CN(c6ccccc6)C5)n4)CC3)n(C[C@@H]3CCO3)c2c1 [Compound 39, (S)-1-(oxetan-2-ylmethyl)-2-((4-(6-((1-phenylazetidin-3-yl)oxy)pyridin-2-yl)piperazin-1-yl)methyl)-1H-benzo[d]imidazole-6-carboxylic acid]",420 nM,–

# Source: US20220089578A1, “COMPOUNDS AS GLP-1R AGONISTS” (Terns Pharmaceuticals, Inc., priority 2020, published 2022)
